Marks after values point to notes of the source that are not given here.
System: CD-1 mice
Test: 7-Day repeat-dose toxicity study (medicated gel)
Assay type: in vivo, mouse
Conditions: for Organ weight: Kidneys / Organ weight: Liver / Organ weight: Spleen: Average±SD; for Hyperactivity and increased anxiety on opening of the cages: from day 2 on
Method: Fifteen 7-week old male CD-1 mice, weighing 27 to 34 g, were obtained from Janvier, France. Animals were randomly allocated to one of four cohorts (N = 4 for the 0 mg/kg, 100 mg/kg and 300 mg/kg C16 cohorts, N = 3 for the water control group). Animals were healthy at the start of the trial. Each cohort was housed in one conventional cage with wood chip bedding and kept in a room with a well-controlled temperature (20–24°C) and humidity with 12-h light/dark cycles. Duration of acclimation was five days, during which all animals had ad libitum access to feed and tap water. Feed was obtained from Carfil, Belgium (Complete feed for rats and mice, article n° 10783915). Animals were ear-marked under isoflurane anesthesia (induction 5%, maintenance 2.5%, oxygen 1 L/min) on day -3 of the study. The study was not blinded.
On the morning of day -2 of the study, tap water access was removed from the 0 mg/kg, 100 mg/kg and 300 mg/kg C16 cohorts. These groups were granted access to two non-medicated cups of Medigel sucralose (one in a tailor-made plastic holder with magnetic fixation system to the side of the cage, one in a cardboard holder on top of the bedding material) for an acclimatization period of three days. Note: the magnetic fixation system is preferable, as animals tear and consume the cardboard holders.
Medicated gels were prepared in order to provide animals with a PO C16 dose equaling oral gavage dosing at 0, 100 and 300 mg/kg three times per day (0, 78.43 and 235.29 mg C16 per cup, respectively, assuming a consumption of 7 mL of gel per day and an average animal weight of 30 g). On the morning of day 0 of the study, treatment with two medicated gels was started and maintained up to the morning of day 7 (i.e. a 7-day treatment). Fresh cups were prepared and provided every day. Meanwhile, the water control group was continuously granted unlimited access to tap water. Throughout the study, all animals had ad libitum access to feed, except for the water control group, which was fasted on the evening of day 6, i.e. twelve hours prior to the single PO test article administration. Animal weight, feed and water/gel consumption and the presence of toxic symptoms and autonomic effects were monitored on a daily basis for all cohorts.
On the evening of day 6, blood was collected via the tail vein for the 0, 100 and 300 mg/kg C16 cohorts for determination of the whole blood C16 level. On the morning of day 7, mice of the 0, 100 and 300 mg/kg C16 cohorts were anesthetized by IP injection with 250 mg/kg of Avertin (20 mL/kg, preparation see Section E in S1 File). Blood for C16 determination and hematological and biochemical analysis was collected via cardiac exsanguination (600 μL to 1 mL). Detailed analysis protocols are described below. Afterward, animals were sacrificed by cervical dislocation.
All animals were necropsied and assessed for gross pathology. Liver, kidneys and spleen weights were recorded, and fragments of these organs were fixed in a 4% formaldehyde solution and processed for microscopic evaluation.
Cardiac puncture as described above afforded 0.6–1 mL of blood. Approximately 500 μL thereof was collected in a Greiner Bio 0.5 mL ethylenediaminetetraacetic acid (EDTA) Eppendorf tube for hematological parameter determination and kept at room temperature. The remaining volume was collected in a regular Eppendorf tube and allowed to clot completely at room temperature over 45 min. The tubes were centrifuged at 1,900 x g (3000 rpm) and 4 °C for 10 min using a swinging bucket rotor. The upper serum phase was transferred to a new tube with conical bottom. Care was taken not to disturb the intermediate buffy coat layer. The serum samples were centrifuged at 16,000 x g and 4 °C for 10 min in a fixed-angle rotor. The cleared supernatant was transferred to a new tube without disturbing the pellet, affording 200–500 μL of serum. Samples were diluted to 500 μL with normal saline, flash frozen in liquid N2 and stored at -80 °C prior to analysis. […]

[1] = 100 mg/kg cohort, 7-day PO via medicated gels, average±SD
[2] = 300 mg/kg cohort, 7-day PO via medicated gels
[3] = 300 mg/kg cohort, 7-day PO via medicated gels, average±SD

## COc1cc(C(=O)/C=C/c2ccc(F)cc2)cc(OC)c1OC [C16, 4-fluoro-3’,4’,5’-trimethoxychalcone]
[1]
  ALP: 118±33 IU/L
  ALT: 70±40 IU/L
  AST: 345±365 IU/L
  BASO: 0.2±0.2%
  CHO: 96 ± 21 mg/dL
  EO: 0±0%
  GLUC: 218 ± 30 mg/dL
  HCT: 44.5±5.2%
  HGB: 12.2 ± 0.2 g/dL
  IG: 0.04±0.06 10^3/μL
  LYMP: 79.2±3.4%
  MCH: 14.7 ± 1.5 pg
  MCV: 53.4 ± 1.8 fL
  MONO: 2.5±0.6%
  NEUT: 16.9±4.9%
  NRBC: 0.75±1.06 10^3/μL
  PLT: 281±33 10^3/μL
  RBC: 8.32±0.69 10^6/μL
  TP: 42.0 ± 4.5 g/L
  TRIGL: 110 ± 45 mg/dL
  WBC: 3.05±0.08 10^3/μL
100 mg/kg cohort
  Organ weight: Kidneys: 0.45 ± 0.02 g
  Organ weight: Liver: 1.67 ± 0.33 g
  Organ weight: Spleen: 0.16 ± 0.06 g
  Hyperactivity and increased anxiety on opening of the cages: slightly noticeable
100 mg/kg cohort, Day 1
  Daily gel consumption, average: 14.9 g/animal
  Feed consumption, average: 4.8 g/animal
100 mg/kg cohort, Day 1, Average±SD
  Animal weight: 30.0 ± 1.7 g
100 mg/kg cohort, Day 2
  Daily gel consumption, average: 12.3 g/animal
  Feed consumption, average: 5.4 g/animal
100 mg/kg cohort, Day 2, Average±SD
  Animal weight: 30.6 ± 1.6 g
100 mg/kg cohort, Day 3
  Daily gel consumption, average: 11.2 g/animal
  Feed consumption, average: 6.1 g/animal
100 mg/kg cohort, Day 3, Average±SD
  Animal weight: 31.2 ± 2.0 g
100 mg/kg cohort, Day 4
  Daily gel consumption, average: 15.1 g/animal
  Feed consumption, average: 6.9 g/animal
100 mg/kg cohort, Day 4, Average±SD
  Animal weight: 32.0 ± 2.1 g
100 mg/kg cohort, Day 5
  Daily gel consumption, average: 18.1 g/animal
  Feed consumption, average: 5.9 g/animal
100 mg/kg cohort, Day 5, Average±SD
  Animal weight: 32.4 ± 2.0 g
100 mg/kg cohort, Day 6
  Daily gel consumption, average: 13.1 g/animal
  Feed consumption, average: 5.6 g/animal
100 mg/kg cohort, Day 6, Average±SD
  Animal weight: 32.1 ± 2.0 g
100 mg/kg cohort, Day 7
  Daily gel consumption, average: 11.8 g/animal
  Feed consumption, average: 5.6 g/animal
100 mg/kg cohort, Day 7, Average±SD
  Animal weight: 32.7 ± 2.2 g
[2]
  IG: 0 10^3/μL
  LYMP: 60.1%
  NEUT: 39.9%
[3]
  ALP: 94±18 IU/L
  ALT: 43±9 IU/L
  AST: 221±65 IU/L
  BASO: 0±0%
  CHO: 73 ± 18 mg/dL
  EO: 0±0%
  GLUC: 206±24 ^a mg/dL
  HCT: 34.0±7.78%
  HGB: 10.1 ± 2.9 g/dL
  MCH: 16.0 ± 0.2 pg
  MCV: 54.5 ± 4.24 fL
  MONO: 2.6±3.7%
  NRBC: 0.35±0.49 10^3/μL
  RBC: 6.32±1.92 10^6/μL
  TP: 31.6 ± 21.3 g/L
  TRIGL: 123 ± 55 mg/dL
  WBC: 2.97±0.94 10^3/μL
300 mg/kg cohort
  Organ weight: Liver: 1.70 ± 0.19 g
  Organ weight: Spleen: 0.15 ± 0.04 g
  Hyperactivity and increased anxiety on opening of the cages: noticeable
300 mg/kg cohort, p 0.001
  Organ weight: Kidneys: 0.39 ± 0.02 g
300 mg/kg cohort, Day 1
  Daily gel consumption, average: 15.2 g/animal
  Feed consumption, average: 6.0 g/animal
300 mg/kg cohort, Day 1, Average±SD
  Animal weight: 28.6 ± 0.6 g
300 mg/kg cohort, Day 2
  Daily gel consumption, average: 12.6 g/animal
  Feed consumption, average: 6.3 g/animal
300 mg/kg cohort, Day 2, Average±SD
  Animal weight: 29.8 ± 0.7 g
300 mg/kg cohort, Day 3
  Daily gel consumption, average: 14.7 g/animal
  Feed consumption, average: 8.4 g/animal
300 mg/kg cohort, Day 3, Average±SD
  Animal weight: 29.6 ± 0.8 g
300 mg/kg cohort, Day 4
  Daily gel consumption, average: 12.9 g/animal
  Feed consumption, average: 6.6 g/animal
300 mg/kg cohort, Day 4, Average±SD
  Animal weight: 30.5 ± 1.4 g
300 mg/kg cohort, Day 5
  Daily gel consumption, average: 15.4 g/animal
  Feed consumption, average: 6.1 g/animal
300 mg/kg cohort, Day 5, Average±SD
  Animal weight: 30.7 ± 1.6 g
300 mg/kg cohort, Day 6
  Daily gel consumption, average: 13.6 g/animal
  Feed consumption, average: 7.1 g/animal
300 mg/kg cohort, Day 6, Average±SD
  Animal weight: 31.1 ± 1.8 g
300 mg/kg cohort, Day 7
  Daily gel consumption, average: 12.9 g/animal
  Feed consumption, average: 6.2 g/animal
300 mg/kg cohort, Day 7, Average±SD
  Animal weight: 31.3 ± 1.2 g
300 mg/kg cohort, p = 0.001
  Kidney weight versus 100 mg/kg and 0 mg/kg cohort: slight but significant decrease
Medicated gel, 7 days
  Gross lesions on detailed necropsy: No gross lesions
  Histology of the kidney and spleen: no abnormalities

— PMC5823406, “Vehicle development, pharmacokinetics and toxicity of the anti-invasive agent 4-fluoro-3’,4’,5’-trimethoxychalcone in rodents” (PLoS ONE, 2018)
